This passage reports IC50 results from patent US20230295166A1, “ATR INHIBITORS AND USES THEREOF” (ANTENGENE DISCOVERY LIMITED, priority 2020, published 2023).

Assay [1] deals with LoVo (CCL-229) cells. Kind of assay: Tumor cell anti-proliferation assay (CTG assay). It counts as cell-based. As to conditions: LoVo human colorectal cancer cells, 96 h, CellTiter-Glo. The method, then:
Assay 2: Tumor Cell Anti-proliferation Assay (CTG Assay)
Human colorectal cancer cells HT-29 (HTB-38) and LoVo (CCL-229) were selected for the CTG assay, the two cell lines were originally obtained from the American Type Culture Collection (ATCC). FBS and appropriate additives were added into base medium to prepare complete medium, then the cell layer was briefly rinsed with 0.25% (w/v) Trypsin-0.038% (w/v) EDTA solution to remove all traces of serum that contains trypsin inhibitor. After that, appropriate volume of Trypsin-EDTA solution was added to flask and cells under an inverted microscope were observed until cell layer was dispersed. At last, appropriate volume of complete growth medium was added and cells were aspirated by gently pipetting. Numbers were collected and counted with Vi-cell XR and cell density was adjusted, cells were seeded into 96-well opaque-walled clear bottom tissue-culture treated plates in the CO2 incubator for 20-24 hours. All the test compounds were at 10 mM in DMSO. Compounds were then added to the cell media in 3-fold serial dilutions, the final DMSO concentration was 0.5%. Plates were incubated for 96 h at 5% CO2, 37° C. Before the measurement, the appropriate volume of CellTiter-Glo Buffer was transferred into the amber bottle containing CellTiter-Glo substrate to reconstitute the lyophilized enzyme/substrate mixture, mixed gently, thereby forming the CellTiter-Glo Reagent (Promega Cat. No. G7573). The plate and its contents were equilibrated to room temperature for approximately 30 minutes, then 100 μL of CellTiter-Glo Reagent was added to the assay plate, the contents were mixed for 2 minutes on an orbital shaker to induce cell lysis, incubated at room temperature for 10 minutes to stabilize luminescent signal. At last the clear bottom was pasted with white back seal and luminescence was recorded with Enspire. IC50 and GI50 values were calculated with XLFit curve fitting software using 4 Parameter Logistic Model Y=Bottom+(Top−Bottom)/(1+(IC50/X)^HillSlope).
Background: In ATP-based viability assays light output follows the ATP content of the culture.

The target in assay [2] is ATR kinase (Homo sapiens (Human), UniProt Q13535). Kind of assay: ATR inhibition assay (mobility shift assay, phosphorylation of FAM-RAD17). It counts as biochemical. As to conditions: ATR kinase (Eurofins), substrate FAM-RAD17, mobility shift. The procedure: Assay 1: ATR Inhibition Assay
Detection of ATR kinase activity utilized the Mobility shift assay to measure the phosphorylation of the substrate protein FAM-RAD17 (GL, Cat. No. 514318, Lot. No. P19042-MJ524315). The assay was developed and conducted at Chempartner. All the test compounds were dissolved in 100% DMSO at concentration of 20 mM, then prepare compounds and conducted the assay as follows: • 1) Transfer 80 μl 20 mM compound to 40 μl of 100% DMSO in a 96-well plate. • 2) Serially dilute the compound by transferring 20 μl to 60 μl of 100% DMSO in the next well and so forth for a total of 10 concentrations. • 3) Add 100 μl of 100% DMSO to two empty wells for no compound control and no enzyme control in the same 96-well plate. Mark the plate as source plate. • 4) Transfer 40 μl of compound from source plate to a new 384-well plate as the intermediate plate. • 5) Transfer 60 nl compounds to assay plate by Echo. • 6) Add ATR kinase (Eurofins, Cat. No. 14-953, Lot. No. D14 JP007N) into Kinase base buffer (50 mM HEPES, pH 7.5; 0.0015% Brij-35; 0.01% Triton) to prepare 2× enzyme solution, then add 10 μl of 2× enzyme solution to each well of the 384-well assay plate, incubate at room temperature for 10 min. • 7) Add FAM-RAD17 and ATP (Sigma, Cat. No. A7699-1G, CAS No. 987-65-5) in the kinase base buffer to prepare 2×peptide solution, then add 10 μl to the assay plate. • 8) Incubate at 28° C. for specified period of time. Add 40 μl of stop buffer (100 mM HEPES, pH 7.5; 0.015% Brij-35; 0.2% Coating Reagent #3; 50 mM EDTA) to stop reaction. • 9) Collect data on Caliper. Convert conversion values to inhibition values.
Percent inhibition=(max−conversion)/(max−min)*100 wherein “max” stands for DMSO control; “min” stands for low control.
Fit the data in XLFit excel add-in version 5.4.0.8 to obtain IC50 values. Equation used is:
Y=Bottom+(Top−Bottom)/(1+(IC50/X)^HillSlope) wherein X means concentration in a format not transformed to logarithms.

SMILES strings stand for the structures.

A word on the IC50: it is the point on the concentration scale where inhibition reaches its midpoint.

ATR kinase, sequence (Q13535 whole entry): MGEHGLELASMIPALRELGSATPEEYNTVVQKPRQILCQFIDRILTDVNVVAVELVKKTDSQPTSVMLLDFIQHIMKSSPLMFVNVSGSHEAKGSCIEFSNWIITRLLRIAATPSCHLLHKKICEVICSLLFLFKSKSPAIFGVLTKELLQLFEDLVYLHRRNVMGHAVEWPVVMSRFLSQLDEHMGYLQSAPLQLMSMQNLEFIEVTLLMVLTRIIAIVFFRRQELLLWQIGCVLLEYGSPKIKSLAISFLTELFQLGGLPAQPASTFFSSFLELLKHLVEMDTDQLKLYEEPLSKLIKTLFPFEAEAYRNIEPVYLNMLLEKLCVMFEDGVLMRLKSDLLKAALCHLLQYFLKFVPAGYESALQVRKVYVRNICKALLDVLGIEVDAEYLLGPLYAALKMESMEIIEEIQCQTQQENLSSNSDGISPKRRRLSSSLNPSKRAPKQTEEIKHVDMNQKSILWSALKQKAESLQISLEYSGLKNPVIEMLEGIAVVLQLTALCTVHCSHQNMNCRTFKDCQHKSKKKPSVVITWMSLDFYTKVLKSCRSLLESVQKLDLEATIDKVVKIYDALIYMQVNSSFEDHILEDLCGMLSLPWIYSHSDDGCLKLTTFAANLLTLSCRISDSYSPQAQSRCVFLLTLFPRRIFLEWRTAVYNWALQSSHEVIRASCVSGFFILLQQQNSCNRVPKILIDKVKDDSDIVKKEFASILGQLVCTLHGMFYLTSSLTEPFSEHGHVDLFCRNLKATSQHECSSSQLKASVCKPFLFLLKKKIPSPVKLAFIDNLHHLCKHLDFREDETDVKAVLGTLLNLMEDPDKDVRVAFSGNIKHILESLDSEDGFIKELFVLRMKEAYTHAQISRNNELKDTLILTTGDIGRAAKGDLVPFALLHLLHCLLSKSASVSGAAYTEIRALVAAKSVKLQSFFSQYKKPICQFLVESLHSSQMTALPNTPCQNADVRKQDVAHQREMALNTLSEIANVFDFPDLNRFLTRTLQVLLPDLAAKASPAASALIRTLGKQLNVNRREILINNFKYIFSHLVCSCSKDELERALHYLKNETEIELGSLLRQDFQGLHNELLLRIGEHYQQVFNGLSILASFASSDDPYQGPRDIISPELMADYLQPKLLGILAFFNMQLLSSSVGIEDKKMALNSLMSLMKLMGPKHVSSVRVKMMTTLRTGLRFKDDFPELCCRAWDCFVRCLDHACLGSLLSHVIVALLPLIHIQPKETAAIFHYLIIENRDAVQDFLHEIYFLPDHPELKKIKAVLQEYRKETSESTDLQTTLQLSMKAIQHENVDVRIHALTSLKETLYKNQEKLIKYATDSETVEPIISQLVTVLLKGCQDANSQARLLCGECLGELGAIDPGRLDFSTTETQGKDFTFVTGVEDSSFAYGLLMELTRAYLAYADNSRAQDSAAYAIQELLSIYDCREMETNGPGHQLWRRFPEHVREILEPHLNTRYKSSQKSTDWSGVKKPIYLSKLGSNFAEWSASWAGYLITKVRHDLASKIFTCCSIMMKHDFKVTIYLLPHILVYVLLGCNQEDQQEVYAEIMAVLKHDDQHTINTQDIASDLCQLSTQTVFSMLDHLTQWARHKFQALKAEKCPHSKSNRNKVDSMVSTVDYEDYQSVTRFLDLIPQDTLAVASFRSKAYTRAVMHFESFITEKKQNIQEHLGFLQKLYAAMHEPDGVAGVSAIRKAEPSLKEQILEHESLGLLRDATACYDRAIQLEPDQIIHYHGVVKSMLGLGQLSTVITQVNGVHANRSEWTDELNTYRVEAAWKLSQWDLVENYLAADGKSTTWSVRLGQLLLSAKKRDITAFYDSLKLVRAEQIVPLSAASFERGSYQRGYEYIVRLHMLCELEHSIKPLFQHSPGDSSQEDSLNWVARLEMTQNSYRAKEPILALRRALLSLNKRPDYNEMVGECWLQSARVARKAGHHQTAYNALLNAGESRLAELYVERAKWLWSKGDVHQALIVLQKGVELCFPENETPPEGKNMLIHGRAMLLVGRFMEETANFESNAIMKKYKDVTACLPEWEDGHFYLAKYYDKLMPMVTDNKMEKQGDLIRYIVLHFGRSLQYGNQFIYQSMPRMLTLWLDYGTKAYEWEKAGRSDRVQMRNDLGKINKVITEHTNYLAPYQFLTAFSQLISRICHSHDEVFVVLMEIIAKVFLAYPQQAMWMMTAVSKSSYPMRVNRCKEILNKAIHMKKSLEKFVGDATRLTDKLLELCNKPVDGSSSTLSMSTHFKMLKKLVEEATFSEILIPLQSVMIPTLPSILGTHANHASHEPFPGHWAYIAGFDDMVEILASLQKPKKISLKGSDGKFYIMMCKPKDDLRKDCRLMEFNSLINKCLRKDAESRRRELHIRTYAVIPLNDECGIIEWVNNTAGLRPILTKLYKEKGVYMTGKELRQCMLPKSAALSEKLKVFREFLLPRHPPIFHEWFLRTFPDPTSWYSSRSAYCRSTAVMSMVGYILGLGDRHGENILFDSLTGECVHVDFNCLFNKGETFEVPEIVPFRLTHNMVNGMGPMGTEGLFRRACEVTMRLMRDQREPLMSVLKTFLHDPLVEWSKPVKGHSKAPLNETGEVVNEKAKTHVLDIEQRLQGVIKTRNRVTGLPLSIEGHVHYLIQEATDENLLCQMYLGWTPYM
ATR kinase, sequence (Q8WXE1 whole entry partner): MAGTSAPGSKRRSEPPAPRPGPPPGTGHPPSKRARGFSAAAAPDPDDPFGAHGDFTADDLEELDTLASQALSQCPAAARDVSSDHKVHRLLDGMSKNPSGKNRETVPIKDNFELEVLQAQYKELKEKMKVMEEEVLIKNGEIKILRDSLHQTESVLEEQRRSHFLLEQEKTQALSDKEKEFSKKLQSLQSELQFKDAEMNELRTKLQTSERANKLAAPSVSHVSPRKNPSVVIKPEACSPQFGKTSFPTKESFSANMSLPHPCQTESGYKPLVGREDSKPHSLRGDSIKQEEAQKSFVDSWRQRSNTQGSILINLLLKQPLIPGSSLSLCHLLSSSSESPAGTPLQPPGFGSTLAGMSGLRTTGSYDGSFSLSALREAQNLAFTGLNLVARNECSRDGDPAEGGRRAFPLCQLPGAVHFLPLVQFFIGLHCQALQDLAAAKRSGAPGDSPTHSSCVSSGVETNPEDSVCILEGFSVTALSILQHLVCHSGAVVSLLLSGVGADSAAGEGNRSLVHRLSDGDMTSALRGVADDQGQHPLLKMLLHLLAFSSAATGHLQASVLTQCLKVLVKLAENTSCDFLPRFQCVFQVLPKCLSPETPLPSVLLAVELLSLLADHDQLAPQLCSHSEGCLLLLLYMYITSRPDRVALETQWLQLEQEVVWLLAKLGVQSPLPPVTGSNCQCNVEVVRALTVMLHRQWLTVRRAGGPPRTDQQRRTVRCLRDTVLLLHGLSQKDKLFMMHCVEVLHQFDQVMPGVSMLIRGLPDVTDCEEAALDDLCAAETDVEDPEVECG

For `Cc1nnn(C)c1-c1cc(N2CCOC[C@H]2C)nn2c(-c3ccn[nH]3)ncc12` [Example 33, (3R)-4-[4-(dimethyl-1H-1,2,3-triazol-5-yl)-7-(1H-pyrazol-5-yl)imidazo[1,5-b]pyridazin-2-yl]-3-methylmorpholine], the IC50 is 162 nM in assay [1] and under 100 nM in assay [2].

Consider `C[C@@H]1COCCN1c1cc(-c2cccnc2F)n2ncc(-c3ccn[nH]3)c2n1` [Example 6, (R)-4-(7-(2-fluoropyridin-3-yl)-3-(1H-pyrazol-5-yl)pyrazolo[1,5-a]pyrimidin-5-yl)-3-methylmorpholine], for which the IC50 in assay [1] is 803 nM; in assay [2] it was under 100 nM. As for `Cc1cc(-c2ncc3c(C4(S(C)(=O)=O)CC4)cc(N4CCOC[C@H]4C)nn23)[nH]n1` [Example 31, (R)-3-methyl-4-(7-(3-methyl-1H-pyrazol-5-yl)-4-(1-(methylsulfonyl)cyclopropyl)imidazo[1,5-b]pyridazin-2-yl)morpholine], the 50% inhibitory concentration (IC50) is 84 nM in assay [1] and under 100 nM in assay [2].

Turning to `Cc1cc(-c2nsc3c(C4(C#N)CC4)cc(N4CCOC[C@H]4C)nc23)[nH]n1` [Example 52, (R)-1-(3-(3-methyl-1H-pyrazol-5-yl)-5-(3-methylmorpholino)isothiazolo [4,5-b]pyridin-7-yl)cyclopropane-1-carbonitrile], the IC50 is 17.7 nM in assay [1] and under 100 nM in assay [2]. The matching figures for `Cc1cc(-c2cnn3c(-c4ccnn4C)cc(N4CCOC[C@H]4C)nc23)[nH]n1` [Example 18, (R)-3-methyl-4-(7-(1-methyl-1H-pyrazol-5-yl)-3-(3-methyl-1H-pyrazol-5-yl)pyrazolo[1,5-a]pyrimidin-5-yl)morpholine]: 384 nM and under 100 nM. The corresponding values for `Cc1cc(-c2nsc3c(-c4c(C)nnn4C)cc(N4CCOC[C@H]4C)nc23)[nH]n1` [Example 48, (R)-4-(7-(1,4-dimethyl-1H-1,2,3-triazol-5-yl)-3-(3-methyl-1H-pyrazol-5-yl)isothiazolo[4,5-b]pyridin-5-yl)-3-methylmorpholine] are 33.3 nM and under 100 nM.

Regarding `C[C@@H]1COCCN1c1cc(C2(C#N)CC2)c2snc(-c3ccn[nH]3)c2n1` [Example 51, (R)-1-(5-(3-methylmorpholino)-3-(1H-pyrazol-5-yl)isothiazolo[4,5-b]pyridin-7-yl)cyclopropane-1-carbonitrile], the IC50 in assay [1] is 15.9 nM; in assay [2], under 100 nM.

`C[C@@H]1COCCN1c1cc(-c2ccnn2C)c2cnc(-c3ccn[nH]3)n2n1` [Example 27, (R)-3-methyl-4-(4-(1-methyl-1H-pyrazol-5-yl)-7-(1H-pyrazol-5-yl)imidazo[1,5-b]pyridazin-2-yl)morpholine]: the IC50 was 67 nM in assay [1] and under 100 nM in assay [2].

In the case of `Cc1cc(-c2nc(Cl)c3c(-c4ccnn4C)cc(N4CCOC[C@H]4C)nn23)[nH]n1` [Example 62, (3R)-4-[5-chloro-4-(1-methyl-1H-pyrazol-5-yl)-7-(3-methyl-1H-pyrazol-5-yl)imidazo[1,5-b]pyridazin-2-yl]-3-methylmorpholine], the IC50 in assay [1] was 14.6 nM; in assay [2], under 100 nM. With `Cc1cc(-c2nsc3c(C4(S(C)(=O)=O)CC4)cc(N4CCOC[C@H]4C)nc23)[nH]n1` [Example 50, (R)-3-methyl-4-(3-(3-methyl-1H-pyrazol-5-yl)-7-(1-(methylsulfonyl)cyclopropyl)isothiazolo[4,5-b]pyridin-5-yl)morpholine], the values for the IC50 in assay [1] and in assay [2] were 17 nM and under 100 nM, respectively. On to `C[C@@H]1COCCN1c1cc(-c2ccnn2C)c2ncc(-c3ccn[nH]3)n2n1` [Example 21, (R)-3-methyl-4-(8-(1-methyl-1H-pyrazol-5-yl)-3-(1H-pyrazol-5-yl)imidazo[1,2-b]pyridazin-6-yl)morpholine], for which the IC50 in assay [2] is under 100 nM. Turning to `Cc1cc(-c2ncc3c(C(C)(C)C#N)cc(N4CCOC[C@H]4C)nn23)[nH]n1` [Example 64, (R)-2-methyl-2-(7-(3-methyl-1H-pyrazol-5-yl)-2-(3-methylmorpholino)imidazo[1,5-b]pyridazin-4-yl)propanenitrile], the values for the IC50 in assay [1] and in assay [2] were 15.1 nM and under 100 nM, respectively. On to `C[C@@H]1COCCN1c1cc(-c2ccn[nH]2)n2ncc(-c3ccn[nH]3)c2n1` [Example 10, (R)-4-(3,7-di(1H-pyrazol-5-yl)pyrazolo[1,5-a]pyrimidin-5-yl)-3-methylmorpholine], for which, in assay [2], the 50% inhibitory concentration (IC50) was under 100 nM. Turning to `Cc1cc(-c2ncc3c(-c4ccnn4C)cc(N4CCOC[C@H]4C)nn23)[nH]n1` [Example 34, (R)-3-methyl-4-(4-(1-methyl-1H-pyrazol-5-yl)-7-(3-methyl-1H-pyrazol-5-yl)imidazo[1,5-b]pyridazin-2-yl)morpholine], the values for the IC50 in assay [1] and in assay [2] were 23 nM and under 100 nM, respectively. The corresponding values for `C[C@@H]1COCCN1c1cc(C2(C#N)CCCC2)c2snc(-c3ccn[nH]3)c2n1` [Example 57, (R)-1-(5-(3-methylmorpholino)-3-(1H-pyrazol-5-yl)isothiazolo[4,5-b]pyridin-7-yl)cyclopentane-1-carbonitrile] are 2.5 nM and under 100 nM. As to `Cc1cc(-c2nsc3c(C(C)(C)S(C)(=O)=O)cc(N4CCOC[C@H]4C)nc23)[nH]n1` [Example 56, (R)-3-methyl-4-(3-(3-methyl-1H-pyrazol-5-yl)-7-(2-(methylsulfonyl)propan-2-yl)isothiazolo[4,5-b]pyridin-5-yl)morpholine], the IC50 in assay [1] is 19 nM; in assay [2], under 100 nM. Regarding `Cc1cn[nH]c1-c1cnn2c(C3(S(C)(=O)=O)CC3)cc(N3CCOC[C@H]3C)nc12` [Example 14, (R)-3-methyl-4-(3-(4-methyl-1H-pyrazol-5-yl)-7-(1-(methylsulfonyl)cyclopropyl)pyrazolo[1,5-a]pyrimidin-5-yl)morpholine], in assay [2], the IC50 is over 500 nM. Still for that read-out and setting: with `C[C@@H]1COCCN1c1cc(-c2ccnn2C)n2ncc(-c3cn[nH]c3)c2n1` [Example 2, (R)-3-methyl-4-(7-(1-methyl-1H-pyrazol-5-yl)-3-(1H-pyrazol-4-yl)pyrazolo [1,5-a]pyrimidin-5-yl)morpholine] the figure was over 500 nM. Turning to `C[C@@H]1COCCN1c1cc(-c2ccnn2C)n2ncc(-c3ccc[nH]3)c2n1` [Example 4, (R)-3-methyl-4-(7-(1-methyl-1H-pyrazol-5-yl)-3-(1H-pyrrol-2-yl)pyrazolo[1,5-a]pyrimidin-5-yl)morpholine], the IC50 in assay [2] was under 100 nM. For the compound `C[C@@H]1COCCN1c1cc(C2([S@](C)(=N)=O)CC2)n2ncc(-c3ccn[nH]3)c2n1` [Example 7a, (R)-imino(methyl)(1-(5-((R)-3-methylmorpholino)-3-(1H-pyrazol-5-yl)pyrazolo[1,5-a]pyrimidin-7-yl)cyclopropyl)-λ6-sulfanone], the IC50 in assay [2] is under 100 nM. For the compound `C[C@@H]1COCCN1c1cc(C2([S@@](C)(=N)=O)CC2)n2ncc(-c3ccn[nH]3)c2n1` [Example 7b, (S)-imino(methyl)(1-(5-((R)-3-methylmorpholino)-3-(1H-pyrazol-5-yl)pyrazolo[1,5-a]pyrimidin-7-yl)cyclopropyl)-λ6-sulfanone], the IC50 in assay [2] was under 100 nM.
